From the SangsterLogP compilation come the findings set out here.

Structures are written as SMILES.

The nature of this data set: method code SF-AS, from DOI: 10.1248/cpb.24.61. Conditions: pH 7.4.
The compound `Cc1c(C(=O)CN(C)C)c(=O)n(-c2ccccc2)n1C` gave a logD of -0.95. Under `Cc1c(NC(N)=O)c(=O)n(-c2ccccc2)n1C` stands -0.92.

As to `Cc1c(NC(C)C(=O)N(C)C)c(=O)n(-c2ccccc2)n1C` (configuration not stated), the pH-dependent lipophilicity (logD) was found to be 0.35. Under `Cc1c(NC(=O)CN(C)C)c(=O)n(-c2ccccc2)n1C` stands -0.37; under `Cc1c(N(C)C(C)C(=O)N(C)C)c(=O)n(-c2ccccc2)n1C` (configuration not stated), 0.69.

On to `Cc1c(C(=O)C(C)N(C)C)c(=O)n(-c2ccccc2)n1C` (configuration not stated), for which the logD was -0.78. The result for `CCC(C(=O)c1c(C)n(C)n(-c2ccccc2)c1=O)N(C)C` (configuration not stated) reads -0.24.
